Data reported in patent publication US8629143B2, “Potassium channel modulators” (AbbVie Inc., priority 2009, dated 2014).

Biological target: T1, KCNQ 2/3 channels (HEK293 cells stably expressing human KCNQ2 and KCNQ3 subunits) (Homo sapiens, UniProt O43525+O43526)
T1 construct: expressed in transfected cells; host or cells: HEK293
Assay: KCNQ2/3 channel activation, thallium flux FLIPR assay with BTC-AM dye
Assay type: cell-based
Settings: for Emax: HEK293, maximum response relative to the response produced by 10 μM retigabine (set at 100%), read-out: Max. %; for EC50: HEK293 cells expressing human KCNQ2 and KCNQ3, thallium flux, FLIPR
In short: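 HEK293 cells stably expressing human KCNQ2/KCNQ3 were loaded with BTC-AM (3 μg/mL, 2 h, RT) and preincubated with compound for 4 min in pH 7.3 gluconate buffer containing 0.1 mM ouabain. Flux was triggered by 6 mM TlNO3/10 mM K2SO4 and read for 3 min; EC50 came from summed responses over basal, with maximum relative to 10 μM retigabine (100%).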

Row | SMILES | Emax [%] | EC50 [nM]
1 | COc1ccc(CC(=O)Nn2nc(-c3ccc(Cl)cc3)c3ccccc3c2=O)cc1 [Example 104, N-[4-(4-chlorophenyl)-1-oxophthalazin-2(1H)-yl]-2-(4-methoxyphenyl)acetamide] | 97 | 1000 to 10000
2 | CS(=O)(=O)c1ccc(CC(=O)Nn2nc(-c3ccc(Cl)cc3)c3ccccc3c2=O)cc1 [Example 111, N-[4-(4-chlorophenyl)-1-oxophthalazin-2(1H)-yl]-2-[4-(methylsulfonyl)phenyl]acetamide] | 25 | > 10000
3 | O=C(Cc1ccc(Cl)s1)Nn1nc(-c2ccc(Cl)cc2)c2ccccc2c1=O [Example 112, N-[4-(4-chlorophenyl)-1-oxophthalazin-2(1H)-yl]-2-(5-chloro-2-thienyl)acetamide] | 92 | 100 to 500
4 | O=C(Cc1ccc(Cl)c(F)c1)Nn1nc(-c2ccc(Cl)cc2)c2ccccc2c1=O [Example 114, 2-(4-chloro-3-fluorophenyl)-N-[4-(4-chlorophenyl)-1-oxophthalazin-2(1H)-yl]acetamide] | 119 | 500 to 1000
5 | CC1(C)[C@H]2CC[C@@H](CC(=O)Nn3nc(-c4ccc(Cl)cc4)c4ccccc4c3=O)[C@@H]1C2 [Example 115, N-[4-(4-chlorophenyl)-1-oxophthalazin-2(1H)-yl]-2-[(1S,2S,5S)-6,6-dimethylbicyclo[3.1.1]hept-2-yl]acetamide] | 69 | 100 to 500
6 | O=C(CC1(c2ccccc2)CCCC1)Nn1nc(-c2ccc(Cl)cc2)c2ccccc2c1=O [Example 119, N-[4-(4-chlorophenyl)-1-oxophthalazin-2(1H)-yl]-2-(1-phenylcyclopentyl)acetamide] | 12 | > 10000
7 | O=C(Cc1ccc2ccccc2c1)Nn1nc(-c2ccc(Cl)cc2)c2ccccc2c1=O [Example 121, N-[4-(4-chlorophenyl)-1-oxophthalazin-2(1H)-yl]-2-(2-naphthyl)acetamide] | 201 | 1000 to 10000
8 | O=C(CCC(F)(F)F)Nn1nc(-c2ccc(Cl)cc2)c2ccccc2c1=O [Example 123, N-[4-(4-chlorophenyl)-1-oxophthalazin-2(1H)-yl]-4,4,4-trifluorobutanamide] | 48 | 500 to 1000
9 | O=C(CC(F)(F)F)Nn1nc(-c2ccc(Cl)cc2)c2ccccc2c1=O [Example 124, N-[4-(4-chlorophenyl)-1-oxophthalazin-2(1H)-yl]-3,3,3-trifluoropropanamide] | 33 | 1000 to 10000
10 | O=C(CC12CC3CC(CC(C3)C1)C2)Nn1nc(-c2cccc(Cl)c2)c2ccccc2c1=O [Example 126, 2-(adamantan-1-yl)-N-[4-(3-chlorophenyl)-1-oxophthalazin-2(1H)-yl]acetamide] | 153 | 100 to 500
11 | O=C(Cc1ccc(Cl)cc1)Nn1nc(-c2cccc(Cl)c2)c2ccccc2c1=O [Example 127, 2-(4-chlorophenyl)-N-[4-(3-chlorophenyl)-1-oxophthalazin-2(1H)-yl]acetamide] | 101 | 100 to 500
12 | O=C(Cc1cc(F)cc(F)c1)Nn1nc(-c2cccc(Cl)c2)c2ccccc2c1=O [Example 128, N-[4-(3-chlorophenyl)-1-oxophthalazin-2(1H)-yl]-2-(3,5-difluorophenyl)acetamide] | 140 | 100 to 500
13 | O=C(Cc1ccc(Cl)cc1)Nn1nc(-c2ccc(F)cc2)c2ccccc2c1=O [Example 132, 2-(4-chlorophenyl)-N-[4-(4-fluorophenyl)-1-oxophthalazin-2(1H)-yl]acetamide] | 123 | 100 to 500
14 | O=C(Cc1cc(F)cc(F)c1)Nn1nc(-c2ccc(F)cc2)c2ccccc2c1=O [Example 133, 2-(3,5-difluorophenyl)-N-[4-(4-fluorophenyl)-1-oxophthalazin-2(1H)-yl]acetamide] | 144 | 100 to 500
15 | Cc1ccc(-c2nn(NC(=O)Cc3ccc(Cl)cc3)c(=O)c3ccccc23)cc1 [Example 135, 2-(4-chlorophenyl)-N-[4-(4-methylphenyl)-1-oxophthalazin-2(1H)-yl]acetamide] | 95 | 100 to 500
16 | Cc1ccc(-c2nn(NC(=O)C[C@@H]3CC[C@H]4C[C@@H]3C4(C)C)c(=O)c3ccccc23)cc1 [Example 137, 2-[(1S,2S,5S)-6,6-dimethylbicyclo[3.1.1]hept-2-yl]-N-[4-(4-methylphenyl)-1-oxophthalazin-2(1H)-yl]acetamide] | 95 | 100 to 500

Next, values leading:

Row | Emax [%] | EC50 [nM] | SMILES
17 | 84 | 100 to 500 | COc1cccc(CC(=O)Nn2nc(-c3ccc(Cl)cc3)c3ccccc3c2=O)c1 [Example 105, N-[4-(4-chlorophenyl)-1-oxophthalazin-2(1H)-yl]-2-(3-methoxyphenyl)acetamide]
18 | 98 | 100 to 500 | Cc1ccc(CC(=O)Nn2nc(-c3ccc(Cl)cc3)c3ccccc3c2=O)cc1 [Example 107, N-[4-(4-chlorophenyl)-1-oxophthalazin-2(1H)-yl]-2-(4-methylphenyl)acetamide]
19 | 96 | 100 to 500 | Cc1cccc(CC(=O)Nn2nc(-c3ccc(Cl)cc3)c3ccccc3c2=O)c1 [Example 108, N-[4-(4-chlorophenyl)-1-oxophthalazin-2(1H)-yl]-2-(3-methylphenyl)acetamide]
20 | 138 | < 100 | O=C(CC1CCCC1)Nn1nc(-c2ccc(Cl)cc2)c2ccccc2c1=O [Example 109, N-[4-(4-chlorophenyl)-1-oxophthalazin-2(1H)-yl]-2-cyclopentylacetamide]
21 | 120 | < 100 | CC(C)CCC(=O)Nn1nc(-c2ccc(Cl)cc2)c2ccccc2c1=O [Example 110, N-[4-(4-chlorophenyl)-1-oxophthalazin-2(1H)-yl]-4-methylpentanamide]
22 | 132 | < 100 | O=C(CC12CC3CC(CC(C3)C1)C2)Nn1nc(-c2ccc(Cl)cc2)c2ccccc2c1=O [Example 116, 2-(adamantan-1-yl)-N-[4-(4-chlorophenyl)-1-oxophthalazin-2(1H)-yl]acetamide]
23 | 128 | < 100 | O=C(Cc1cc(F)cc(F)c1)Nn1nc(-c2ccc(Cl)cc2)c2ccccc2c1=O [Example 118, N-[4-(4-chlorophenyl)-1-oxophthalazin-2(1H)-yl]-2-(3,5-difluorophenyl)acetamide]
24 | 143 | < 100 | O=C(C[C@@H]1C[C@@H]2CC[C@H]1C2)Nn1nc(-c2ccc(F)cc2)c2ccccc2c1=O [Example 129, 2-[(1S,2S,4R)-bicyclo[2.2.1]hept-2-yl]-N-[4-(4-fluorophenyl)-1-oxophthalazin-2(1H)-yl]acetamide]
25 | 156 | < 100 | O=C(C[C@@H]1C[C@@H]2C=C[C@H]1C2)Nn1nc(-c2ccc(F)cc2)c2ccccc2c1=O [Example 130, 2-[(1S,2S,4S)-bicyclo[2.2.1]hept-5-en-2-yl]-N-[4-(4-fluorophenyl)-1-oxophthalazin-2(1H)-yl]acetamide]
26 | 130 | < 100 | Cc1ccc(-c2nn(NC(=O)Cc3cc(F)cc(F)c3)c(=O)c3ccccc23)cc1 [Example 136, 2-(3,5-difluorophenyl)-N-[4-(4-methylphenyl)-1-oxophthalazin-2(1H)-yl]acetamide]
27 | 129 | < 100 | Cc1ccc(-c2nn(NC(=O)CC34CC5CC(CC(C5)C3)C4)c(=O)c3ccccc23)cc1 [Example 138, 2-(adamantan-1-yl)-N-[4-(4-methylphenyl)-1-oxophthalazin-2(1H)-yl]acetamide]
